Results from patent publication US7955618B2, “Composition for treatment of inflammatory disorders” (Enceladus Pharmaceuticals B.V., priority 2001, dated 2011).

Columns and labels:
[1] = system: AT-EAE (T cells and macrophages in spinal cord); conditions: 50 mg/kg i.v. at 18 h and 6 h before perfusion
Experimental: Adoptive Transfer Experimental Autoimmune Encephalomyelitis (AT-EAE) was induced in female Lewis rats by intravenous injection of 10^7 MBP-specific T cells.
10 mg/kg prednisolone phosphate containing liposomes, as prepared according to Example I, were applied intravenously at 42 hours and 18 hours prior to sacrifice. Another group received 50 mg/kg methylprednisolone intravenously at 18 hours and 6 hours before perfusion. Control rats received empty liposomes and/or saline at equivalent time points.
T cells or macrophages in spinal cord were detected immunohistochemically in paraffin embedded tissue and apoptosis was assessed by the TUNEL assay and by morphological criteria. Student t test for grouped data was used for statistical analysis.

[2] = system: rat adjuvant arthritis model (paw inflammation); test: Rat adjuvant arthritis model, visual paw inflammation score; assay type: in vivo, Lewis rats; conditions: for average inflammation score: day 15 until day 21, 6.5±0.56 on day 14, daily saline max 10.6±1.3 on day 20; for effect on course of the disease (paw inflammation): single injection, doses equal to liposomal drug, p>0.05 Kruskall-Wallis
Experimental: Lewis rats were immunized subcutaneously at the tail base with heat-inactivated Mycobacterium tuberculosis in incomplete Freund's adjuvant.
Assessment of the disease was performed by visually scoring paw inflammation severity, maximum score 4 per paw, and measuring disease-induced body weight loss. […] Rats were treated when the average score >6 (at day 14 or 15 after disease induction).

Compound	clinical score ([1]; controls 3.2±0.3)	macrophage infiltration in spinal cord ([1]; controls 78±37) [macrophages/mm^2]	T cell infiltration in spinal cord ([1]; controls 115±51) [T cells/mm^2]	rate of T cell apoptosis in spinal cord tissue ([1]; mean±SD, control 16.1±4.3%) [%]	average inflammation score ([2]; 10 mg/kg daily for 7 days)	average inflammation score ([2]; 20 mg/kg daily for 7 days)	effect on course of the disease (paw inflammation) [2]	effect on course of the disease (paw inflammation) ([2]; listed as unencapsulated prednisolone phosphate)
C[C@H]1C[C@@H]2[C@H]([C@@H](O)C[C@@]3(C)[C@H]2CC[C@]3(O)C(=O)CO)[C@@]2(C)C=CC(=O)C=C12 [Methylprednisolone, methylprednisolone]	3.2±0.3	66±25	96±19	30.8±8.0	–	–	–	–
prednisolone disodium phosphate [Unencapsulated prednisolone phosphate]	–	–	–	–	around 5.0	around 5.0	did not significantly alter the course of the disease	No effect
